Test results taken from patent US20120258170A1, “PHARMACEUTICAL CO-CRYSTALS OF QUERCETIN” (Nutracryst Therapeutics Private Limited, priority 2009, published 2012).
“Also recorded” adds a separate entry of the source. Like-named read-outs stand apart in the source and are kept apart here.

Tests used:
[1] = Chronic effect on body weight in db/db mice; assay type: in vivo; details: Mean ± SEM; for Final day Body weight: after 21 days 300 mg/kg once daily; for % Increase in body weight: basal to final day
Protocol: (§1) Compounds and Vehicle: All test-compounds were formulated in tween CMC (10% of 2.5% tween 80+90% of 0.25% CMC) and prepared daily about 1 hr before administration. Animals were dosed for 21 days through oral gavage at dose volume of 10 ml/kg body weight.
(§2) Animals were dosed daily at around 10 AM to 11 AM with corresponding test compounds/vehicle at a volume of 10 ml/kg of body weight. Body weight, water intake and food intake was measured daily. After 14 days treatment plasma profile (PG, TG & TC) was measured in 4 hrs fasted animals. On that day animals were dosed post bleeding after keeping feed at 4 PM. After 21 days treatment plasma profile (PG, TG & TC) was measured in 4 hrs fasted animals. After bleeding, animals were administered with test compounds/vehicle and plasma glucose was measured 3 hrs post dosing with Glucometer. Immediately animals were provided with feed.
(§3) Statistics were applied using One-Way ANOVA followed by Dunnett's test using sigma stat software.

db/db mice [2] = test: Chronic effect (21 days) on plasma glucose 3 hrs post dosing in db/db mice; assay type: in vivo; details: for % Red PG, 21th day 3 hr post dosing / 21th day 3 hr post dosing PG: 21 days 300 mg/kg once daily, then dose; for 21th day 3 hr post dosing PG: Mean ± SEM
Protocol: (§4) Db/db mice were acclimatized to dosing and exposed to tail cut and r.o.p bleeding. Animals were grouped based on plasma glucose, triglyceride and cholesterol values. Acute effect of test compound on plasma glucose levels determined 3 hrs post dosing followed by administration of test compound for 21 days. After 14 days treatment, 4 hrs fasting plasma glucose levels were measured. After 21 days treatment, 4 hrs fasting plasma glucose levels were measured followed by test compound administration and measurement of plasma glucose levels 3 hrs post dosing.
(§5) Kits: Plasma glucose, cholesterol and triglyceride were measured using Dade Behring auto analyzer. Plasma insulin values measured using Rat/mouse insulin ELISA kit (Millipore, lot no 16006280). Tail cut method plasma glucose values measured using Contour TS glucometer strips (Lot WK8MD3E32A).
as §1, §2
(§6) The percent reduction in plasma profile parameters were calculated using the formula 1−(tt/tc)/bt/bc)×100; where tt: test day treated group mean value of the parameter; tc: test day control group mean value of the parameter; bc: Basal Control group mean value; bt: Basal treated group mean value.
as §3

db/db mice [3] = test: Chronic effect on plasma profile (PG, TC, TG), 4 hrs fasted, before dosing, in db/db mice; assay type: in vivo; details: for 14th day PG / 14th day TC / 14th day TG: 14 days 300 mg/kg once daily per oral, pre dosing; for 14th day PG / 14th day TC / 14th day TG / 21st day PG / 21st day TC / 21st day TG: 4 hr fasting; for % Red PG, 14th day / % Red TC, 14th day / % Red TG, 14th day: 14 days 300 mg/kg once daily; for % Red PG, 14th day / % Red TC, 14th day / % Red TG, 14th day / % Red PG, 21st day: adjusted for control and basal; for 21st day PG / 21st day TC / 21st day TG: 21 days 300 mg/kg once daily per oral, predosing; for % Red PG, 21st day / % Red TC (plasma cholesterol), 21st day / % Red TG (plasma triglyceride), 21st day: 21 days 300 mg/kg once daily; for % Red TC (plasma cholesterol), 21st day / % Red TG (plasma triglyceride), 21st day: post 4 hrs fasting, without dosing on the day; for Basal PG / Basal TC / Basal TG: 4 hrs fasted, before treatment, Mean ± SEM
Protocol: as §4, §5, §1, §2
(§7) Blood samples from r.o.p bleeding were collected in micro centrifuge tubes containing 5 ul of EDTA Na ([…]). Plasma separated by centrifuging blood samples at 6000 rpm at 40 C for 5 minutes. Plasma glucose, total cholesterol and triglyceride were measured using Dade Bhering auto analyser. Plasma insulin was measured (in duplicate samples), using Millipore mouse/rat insulin ELISA kit.
as §6, §3

db/db mice [4] = test: Chronic effect on plasma insulin levels in db/db mice; assay type: in vivo; details: for % Reduction@ in plasma insulin: 21th day, calculated after adjusting for control group change; for 21th day insulin: 21 days 300 mg/kg once daily, 4 hr fasting, predosing; for % Reduction in plasma insulin: basal vs 21th day; for % Reduction in plasma insulin / Basal insulin: Mean ± SEM; for Basal insulin: before treatment
Protocol: as §5, §1, §2, §7, §6, §3

db/db mice [5] = test: Acute effect of test compounds on plasma glucose levels in db/db mice; assay type: in vivo; details: for % Reduction in plasma glucose (acute): 0 hr vs 3 hr post single dose 300 mg/kg per oral; for % Reduction in plasma glucose (acute) / 3 Hr plasma glucose / 0 Hr plasma glucose: Mean ± SEM; for 3 Hr plasma glucose: 3 hrs post single dose 300 mg/kg per oral; for 0 Hr plasma glucose: 4 hrs fasted, before dosing, 300 mg/kg per oral group
Protocol: as §4, §5, §1
On the day of initiating study animals were fasted for 4 hrs and plasma glucose was measured with Glucometer by tail cut method. Animals were dosed with test compound/vehicle according to their body weight and 3 hrs post dosing plasma glucose levels were measured with Glucometer Immediately animals were provided with measured amount of feed.
Acute effect percent reduction in PG was calculated for each animal using the formula
{(0 hr PG−test hr PG)/0 hr PG}×100
as §3

[6] = Stability of the co-crystal
[7] = water
Protocol: The compounds disclosed herein are finely ground and passed through standard mesh filter and particles with 75-180 micron, and are tested for their solubility and dissolution profile.
The solubility studies for co-crystals and salts were performed according to Higuchi and Connor's method with some variations. Excess amounts (100 mg) of the samples were suspended in 10 mL of water in round bottom flask. Solutions were stirred at 300 rpm using a magnetic stirrer. After 72 h, the suspensions were filtered through a paper filter (Whatman 40)) and filtered aliquots were sufficiently diluted, the absorbance of the samples were measured at 232 nm and the values were normalized for API. […] A standard graph was made by measuring the absorbance of varied concentrations of API in water using a UV spectrophotometer (Nanodrop UV/vis spectrometer) at λmax 232 nm.

[8] = cited from earlier work

Structure (SMILES) | Final day Body weight [1] [g] | % Increase in body weight [1] [%] | Basal Body weight [1] [g] | % Red PG, 21th day 3 hr post dosing (db/db mice [2]) [%] | 21th day 3 hr post dosing PG (db/db mice [2]) [mg/dL] | 14th day PG (db/db mice [3]) [mg/dL] | 14th day TC (db/db mice [3]) [mg/dL] | 14th day TG (db/db mice [3]) [mg/dL] | % Red PG, 14th day (db/db mice [3]) [%] | % Red TC, 14th day (db/db mice [3]) [%] | % Red TG, 14th day (db/db mice [3]) [%] | 21st day PG (db/db mice [3]) [mg/dL] | 21st day TC (db/db mice [3]) [mg/dL] | 21st day TG (db/db mice [3]) [mg/dL] | % Red PG, 21st day (db/db mice [3]) [%] | % Red TC (plasma cholesterol), 21st day (db/db mice [3]) [%] | % Red TG (plasma triglyceride), 21st day (db/db mice [3]) [%] | Basal PG (db/db mice [3]) [mg/dL] | Basal TC (db/db mice [3]) [mg/dL] | Basal TG (db/db mice [3]) [mg/dL] | other results
O.O.O=c1c(O)c(-c2ccc(O)c(O)c2)oc2cc(O)cc(O)c12 [ILB-MCO-0904Q, Quercetin dihydrate] | 44.6 ± 1.3 | 12.2 ± 2.3 | 39.1 ± 1.2 | 4 | 345 ± 41 | 476.41 ± 45.57 | 154.43 ± 6.50 | 129.08 ± 5.61 | −4 | −1 | 8 | 432.69 ± 42.38 | 151.25 ± 4.93 | 141.99 ± 8.25 | 0 | 15 | 21 | 402.50 ± 26.82 | 156.25 ± 4.53 | 138.00 ± 8.04 | effect on plasma glucose levels with acute or chronic administration (in words) (db/db mice [3]; 300 mg/kg): Did not show significant effect; % Reduction@ in plasma insulin (db/db mice [4]): 18%; 21th day insulin (db/db mice [4]): 2.90 ± 0.33 ng/mL; % Reduction in plasma insulin (db/db mice [4]): 0.29 ± 9.87%; Basal insulin (db/db mice [4]): 2.94 ± 0.20 ng/mL; % Reduction in plasma glucose (acute) (db/db mice [5]): 31 ± 4%; 3 Hr plasma glucose (db/db mice [5]): 293 ± 65 mg/dL; 0 Hr plasma glucose (db/db mice [5]): 398 ± 67 mg/dL
CN(C)C(=N)NC(=N)N.CN(C)C(=N)NC(=N)N.O.O.O=c1c(O)c(-c2ccc(O)c(O)c2)oc2cc(O)cc(O)c12 [ILB-MCO-0905Q, Quercetin dihydrate+Metformin free base co-crystal (1:2)] | 43.7 ± 1 | 10.1 ± 2.5 | 39.2 ± 0.8 | 38 | 225 ± 33 | 417.71 ± 37.85 | 153.68 ± 3.49 | 126.70 ± 6.25 | 8 | 2 | 8 | 368.96 ± 32.95 | 160.25 ± 4.29 | 129.66 ± 5.38 | 14 | 13 | 27 | 399.40 ± 26.54 | 160.42 ± 3.77 | 135.94 ± 6.92 | stability under accelerated conditions ([6]; accelerated conditions): stable; stability monitored once in seven days for 3 months ([6]; desiccated conditions): stable; hygroscopicity ([6]; normal conditions): hygroscopic; plasma glucose levels 3 hrs post dosing after 21 days treatment followed by administration on day 21 (in words) (db/db mice [2]; 300 mg/kg): significant lowering; also recorded: significant reduction; 4 hrs fasting plasma glucose levels after 21 days treatment (in words) (db/db mice [3]; chronic treatment 21 days, 300 mg/kg): did not show significant reduction; solubility compared with the parent molecule Quercetin ([7]; listed as Quercetin dihydrate-Metformin co-crystal): substantially improved; solubility compared with the parent molecule Quercetin ([7]; listed as Quercetin dihydrate-Metformin co-crystals): greater than the parent molecule; % Reduction@ in plasma insulin (db/db mice [4]): 45%; 21th day insulin (db/db mice [4]): 3.03 ± 0.42 ng/mL; plasma insulin levels after 21 days treatment (in words) (db/db mice [4]; 21 days, 300 mg/kg, compared to control group): significant reduction; % Reduction in plasma insulin (db/db mice [4]): 30.56 ± 8.10 %; Basal insulin (db/db mice [4]): 4.55 ± 0.50 ng/mL; % Reduction in plasma glucose (acute) (db/db mice [5]): 48 ± 4 %; 3 Hr plasma glucose (db/db mice [5]): 186 ± 21 mg/dL; 0 Hr plasma glucose (db/db mice [5]): 358 ± 34 mg/dL; plasma glucose levels 3 hrs post dosing with single dose (in words) (db/db mice [5]; acute administration, 300 mg/kg, vs control group, 300 mg/kg): Significant lowering; also recorded: significant reduction
N[C@@H](CC(=O)N1CCn2c(nnc2C(F)(F)F)C1)Cc1cc(F)c(F)cc1F [Sitagliptin] |  |  |  |  |  |  |  |  |  |  |  |  |  |  |  |  |  |  |  |  | Bioavailability [8]: 87%; Half Life [8]: 8 to 14 h
